Measurements published in ChEMBL document CHEMBL1629707, “Naphthalimide based novel organoselenocyanates: finding less toxic forms of selenium that would retain protective efficacy” (Bioorg Med Chem Lett, 2010).

Tests used:
Mus musculus [1] = assay: Increase of Gpx level in Swiss albino mouse liver assessed as NADPH oxidation per mg of protein at 3 mg/kg, po after 30 days (reference value: 0.646+/-0.030 umol); format: functional
Mus musculus [2] = assay: Nephrotoxicity in Swiss albino mouse assessed as BUN level at 3 mg/kg, po after 30 days (reference value: 21.57+/-0.92 mg/dL); format: toxicity, organism-based; parameters: dose 3 mg/kg, route oral; settings: in vivo, 720 h
Mus musculus [3] = assay: Increase of GST level in Swiss albino mouse liver assessed as CDNB-GSH conjugate per mg of protein at 3 mg/kg, po after 30 days (reference value: 95.66+/-4.0 nmol/min); format: functional
Mus musculus [4] = assay: Toxicity in Swiss albino mouse assessed as loss of body weight at 3 mg/kg, po administered for 30 days; format: organism-based; parameters: dose 3 mg/kg, route oral; settings: in vivo, 720 h
Mus musculus [5] = assay: Increase of TRxR level in Swiss albino mouse liver assessed per mg of protein at 3 mg/kg, po after 30 days (reference value: 3.20+/-0.134 U); format: functional
[6] = Induction of chromosomal aberration in Swiss albino mouse bone marrow cell at 3 mg/kg, po after 30 days (reference value: 14.88+/-0.99 %); format: organism-based; parameters: dose 3 mg/kg, route oral; settings: in vivo, 720 h
Mus musculus [7] = assay: Increase of SOD level in Swiss albino mouse liver assessed per mg of protein at 3 mg/kg, po after 30 days (reference value: 250.16+/-7.46 U); format: functional
Mus musculus [8] = assay: Toxicity in Swiss albino mouse assessed as hemoglobin level at 3 mg/kg, po after 30 days (reference value: 12.56+/-0.43 gm/dL); format: organism-based; parameters: dose 3 mg/kg, route oral; settings: in vivo, 720 h
Mus musculus [9] = assay: Hepatotoxicity in Swiss albino mouse assessed as TBARS production per mg of protein at 3 mg/kg, po after 30 days (reference value: 0.26+/-0.02 nmol); format: toxicity, organism-based; parameters: dose 3 mg/kg, route oral; settings: in vivo, 720 h
Mus musculus [10] = assay: Toxicity in Swiss albino mouse assessed as decrease in final body weight at 1.2 mg/kg, po administered for 30 days; format: organism-based; parameters: dose 1.2 mg/kg, route oral; settings: in vivo, 720 h
Mus musculus [11] = assay: Increase of GSH level in Swiss albino mouse liver assessed per mg of protein at 3 mg/kg, po after 30 days (reference value: 46.87+/-1.88 nmol); format: functional
Mus musculus [12] = assay: Increase of CAT level in Swiss albino mouse liver assessed per mg of protein at 3 mg/kg, po after 30 days (reference value: 41.66+/-1.33 U); format: functional
Mus musculus [13] = assay: Nephrotoxicity in Swiss albino mouse assessed as serum creatinine level at 3 mg/kg, po after 30 days (reference value: 9.40+/-0.48 mg/dL); format: toxicity, organism-based; parameters: dose 3 mg/kg, route oral; settings: in vivo, 720 h
Mus musculus [14] = assay: Hepatotoxicity in Swiss albino mouse assessed as plasma ALT level at 3 mg/kg, po after 30 days (reference value: 66.00+/-4.18 U/mL); format: toxicity, organism-based; parameters: dose 3 mg/kg, route oral; settings: in vivo, 720 h
[15] = Toxicity in po dosed Swiss albino mouse; format: organism-based; settings: in vivo
Mus musculus [16] = assay: Hepatotoxicity in Swiss albino mouse assessed as plasma AST level at 3 mg/kg, po after 30 days (reference value: 179.00+/-4.18 U/mL); format: toxicity, organism-based; parameters: dose 3 mg/kg, route oral; settings: in vivo, 720 h
Mus musculus [17] = assay: Increase of TRxR level in Swiss albino mouse liver assessed per mg of protein at 3 mg/kg, po after 30 days relative to control; format: functional
Mus musculus [18] = assay: Nephrotoxicity in Swiss albino mouse assessed as lesion at 3 mg/kg, po after 30 days by histopathology analysis; format: toxicity, organism-based; parameters: dose 3 mg/kg, route oral; settings: in vivo, 720 h
Mus musculus [19] = assay: Hepatotoxicity in Swiss albino mouse assessed as necrosis at 3 mg/kg, po after 30 days by histopathology analysis; format: toxicity, organism-based; parameters: dose 3 mg/kg, route oral; settings: in vivo, 720 h
Mus musculus [20] = assay: Hepatotoxicity in Swiss albino mouse assessed as lesion at 3 mg/kg, po after 30 days by histopathology analysis; format: toxicity, organism-based; parameters: dose 3 mg/kg, route oral; settings: in vivo, 720 h
Mus musculus [21] = assay: Nephrotoxicity in Swiss albino mouse assessed as inflammation at 3 mg/kg, po after 30 days by histopathology analysis; format: toxicity, organism-based; parameters: dose 3 mg/kg, route oral; settings: in vivo, 720 h
Mus musculus [22] = assay: Increase of Gpx level in Swiss albino mouse liver assessed as NADPH oxidation per mg of protein at 3 mg/kg, po after 30 days relative to control; format: functional
Mus musculus [23] = assay: Hepatotoxicity in Swiss albino mouse assessed as inflammation at 3 mg/kg, po after 30 days by histopathology analysis; format: toxicity, organism-based; parameters: dose 3 mg/kg, route oral; settings: in vivo, 720 h
Mus musculus [24] = assay: Nephrotoxicity in Swiss albino mouse assessed as necrosis at 3 mg/kg, po after 30 days by histopathology analysis; format: toxicity, organism-based; parameters: dose 3 mg/kg, route oral; settings: in vivo, 720 h
Mus musculus [25] = assay: Increase of TRxR level in Swiss albino mouse liver assessed per mg of protein at 1.2 mg/kg, po after 30 days (reference value: 3.20+/-0.134 U); format: functional
Mus musculus [26] = assay: Increase of Gpx level in Swiss albino mouse liver assessed as NADPH oxidation per mg of protein at 1.2 mg/kg, po after 30 days (reference value: 0.646+/-0.030 umol); format: functional
Mus musculus [27] = assay: Hepatotoxicity in Swiss albino mouse assessed as TBARS production per mg of protein at 1.2 mg/kg, po after 30 days (reference value: 0.26+/-0.02 nmol); format: toxicity, organism-based; parameters: dose 1.2 mg/kg, route oral; settings: in vivo, 720 h
Mus musculus [28] = assay: Hepatotoxicity in Swiss albino mouse assessed as plasma ALT level at 1.2 mg/kg, po after 30 days (reference value: 66.00+/-4.18 U/mL); format: toxicity, organism-based; parameters: dose 1.2 mg/kg, route oral; settings: in vivo, 720 h
[29] = Induction of chromosomal aberration in Swiss albino mouse bone marrow cell at 1.2 mg/kg, po after 30 days (reference value: 14.88+/-0.99 %); format: organism-based; parameters: dose 1.2 mg/kg, route oral; settings: in vivo, 720 h
Mus musculus [30] = assay: Nephrotoxicity in Swiss albino mouse assessed as infiltration of mononuclear cells at 1.2 mg/kg after 30 days by histopathology analysis; format: toxicity, organism-based; parameters: dose 1.2 mg/kg; settings: in vivo, 720 h
Mus musculus [31] = assay: Nephrotoxicity in Swiss albino mouse assessed as serum creatinine level at 1.2 mg/kg, po after 30 days (reference value: 9.40+/-0.48 mg/dL); format: toxicity, organism-based; parameters: dose 1.2 mg/kg, route oral; settings: in vivo, 720 h
Mus musculus [32] = assay: Increase of GST level in Swiss albino mouse liver assessed as CDNB-GSH conjugate per mg of protein at 1.2 mg/kg, po after 30 days (reference value: 95.66+/-4.0 nmol/min); format: functional
Mus musculus [33] = assay: Nephrotoxicity in Swiss albino mouse assessed as BUN level at 1.2 mg/kg, po after 30 days (reference value: 21.57+/-0.92 mg/dL); format: toxicity, organism-based; parameters: dose 1.2 mg/kg, route oral; settings: in vivo, 720 h
Mus musculus [34] = assay: Hepatotoxicity in Swiss albino mouse assessed as plasma AST level at 1.2 mg/kg, po after 30 days (reference value: 179.00+/-4.18 U/mL); format: toxicity, organism-based; parameters: dose 1.2 mg/kg, route oral; settings: in vivo, 720 h
Mus musculus [35] = assay: Toxicity in Swiss albino mouse assessed as hemoglobin level at 1.2 mg/kg, po after 30 days (reference value: 12.56+/-0.43 gm/dL); format: organism-based; parameters: dose 1.2 mg/kg, route oral; settings: in vivo, 720 h
Mus musculus [36] = assay: Increase of SOD level in Swiss albino mouse liver assessed per mg of protein at 1.2 mg/kg, po after 30 days (reference value: 250.16+/-7.46 U); format: functional
Mus musculus [37] = assay: Hepatotoxicity in Swiss albino mouse assessed as infiltration of mononuclear cells at 1.2 mg/kg after 30 days by histopathology analysis; format: toxicity, organism-based; parameters: dose 1.2 mg/kg; settings: in vivo, 720 h
Mus musculus [38] = assay: Increase of GSH level in Swiss albino mouse liver assessed per mg of protein at 1.2 mg/kg, po after 30 days (reference value: 46.87+/-1.88 nmol); format: functional
Mus musculus [39] = assay: Increase of CAT level in Swiss albino mouse liver assessed per mg of protein at 1.2 mg/kg, po after 30 days (reference value: 41.66+/-1.33 U); format: functional

N#C[Se]CCCCCN1C(=O)c2cccc3cccc(c23)C1=O
Activity (Mus musculus [1]): 0.864 U
Activity (Mus musculus [2]): 160 mg/dL
Activity (Mus musculus [3]): 104.41 nM
Activity (Mus musculus [4]): Non-toxic
Activity (Mus musculus [5]): 4.61 U
Activity [6]: 13.39%
Activity (Mus musculus [7]): 258.56 U
Activity (Mus musculus [8]): 13.08 g/dL
Activity (Mus musculus [9]): 0.24 nM
Activity (Mus musculus [10]): Toxic
Activity (Mus musculus [11]): 50.94 nM
Activity (Mus musculus [12]): 45.48 U
Activity (Mus musculus [13]): 6.4 mg/dL
Activity (Mus musculus [14]): 61 U/ml
LD50 [15]: > 1000 mg/kg
Activity (Mus musculus [16]): 160 U/ml

N#C[Se]CCCCCN1C(=O)c2cccc3c(Cl)ccc(c23)C1=O
Activity (Mus musculus [1]): 0.995 U
Activity (Mus musculus [2]): 142 mg/dL
Activity (Mus musculus [3]): 106.58 nM
Activity (Mus musculus [4]): Non-toxic
Activity (Mus musculus [5]): 4.21 U
Activity [6]: 13.97%
Activity (Mus musculus [7]): 268.71 U
Activity (Mus musculus [8]): 12.86 g/dL
Activity (Mus musculus [9]): 0.26 nM
Activity (Mus musculus [10]): Toxic
Activity (Mus musculus [11]): 59.34 nM
Activity (Mus musculus [12]): 46.6 U
Activity (Mus musculus [13]): 7.45 mg/dL
Activity (Mus musculus [14]): 64 U/ml
LD50 [15]: > 1000 mg/kg
Activity (Mus musculus [16]): 142 U/ml

N#C[Se]CCCCCN1C(=O)c2cccc3cc([N+](=O)[O-])cc(c23)C1=O
Activity (Mus musculus [1]): 0.938 U
Activity (Mus musculus [3]): 97.29 nM
Activity (Mus musculus [4]): Non-toxic
Activity (Mus musculus [5]): 4.15 U
Activity [6]: 13.85%
Activity (Mus musculus [7]): 267.68 U
Activity (Mus musculus [8]): 12.76 g/dL
Activity (Mus musculus [9]): 0.25 nM
Activity (Mus musculus [10]): Toxic
Activity (Mus musculus [11]): 55.82 nM
Activity (Mus musculus [12]): 44.06 U
Activity (Mus musculus [13]): 7.86 mg/dL
Activity (Mus musculus [14]): 62 U/ml
LD50 [15]: > 1000 mg/kg
Activity (Mus musculus [16]): 154 U/ml

N#C[Se]CCCCCN1C(=O)c2cccc3c(N)ccc(c23)C1=O
Activity (Mus musculus [2]): 148 mg/dL
Activity (Mus musculus [3]): 116.19 nM
Activity (Mus musculus [17]): 53.43%
Activity (Mus musculus [18]): Non-toxic
Activity (Mus musculus [4]): Non-toxic
Activity (Mus musculus [19]): Non-toxic
Activity (Mus musculus [20]): Non-toxic
Activity [6]: 12.7%
Activity (Mus musculus [21]): Non-toxic
Activity (Mus musculus [7]): 296.03 U
Activity (Mus musculus [8]): 13.24 g/dL
Activity (Mus musculus [9]): 0.22 nM
Activity (Mus musculus [22]): 63.77%
Activity (Mus musculus [23]): Non-toxic
Activity (Mus musculus [10]): Toxic
Activity (Mus musculus [11]): 60.4 nM
Activity (Mus musculus [12]): 53.04 U
Activity (Mus musculus [13]): 7.13 mg/dL
Activity (Mus musculus [14]): 59 U/ml
LD50 [15]: > 1000 mg/kg
Activity (Mus musculus [16]): 148 U/ml
Activity (Mus musculus [24]): Non-toxic

O=[Se]([O-])[O-].[Na+].[Na+] [SODIUM SELENITE]
Activity (Mus musculus [25]): 3.75 U
Activity (Mus musculus [26]): 0.692 U
Activity (Mus musculus [27]): 0.3 nM
Activity (Mus musculus [28]): 72 U/ml
Activity [29]: 16.4%
Activity (Mus musculus [30]): Toxic
Activity (Mus musculus [31]): 8.47 mg/dL
Activity (Mus musculus [32]): 85.31 nM
Activity (Mus musculus [33]): 22.6 mg/dL
Activity (Mus musculus [34]): 191 U/ml
Activity (Mus musculus [35]): 11.28 g/dL
LD50 [15]: 25 mg/kg
Activity (Mus musculus [36]): 236.98 U
Activity (Mus musculus [37]): Toxic
Activity (Mus musculus [38]): 44.84 nM
Activity (Mus musculus [39]): 36.6 U
